The values that follow are results of earlier work, collected in patent US20200215149A1, “N-Phenylacetyl-L-prolylglycine ethyl ester compositions and methods for using the same” (priority 2019, published 2020).

Where two headings read alike, the source gives them in different places. Where a SMILES comes first, the peptide text is derived from it. The star is where a group is joined. PhAc = O=C(Cc1ccccc1)*

For series [1] the following is noted: Ostrovskaya, et al. (2008); Hayakawa, et al. (2007).
For series [2] the following is noted: ratio versus piracetam; Neznamov and Teleshova (2009).

Turning to `C=C(C)[C@@H]1CCC(C)=C[C@H]1c1c(O)cc(CCCCC)cc1O` [CBD, cannabidiol], the tolerance or addiction result in series [1] was “neither noopept nor CBD has been shown to cause the user to become tolerant or addicted”. Also, the side effects result (humans who consume effective doses of CBD, Bergamaschi, et al. (2011)) is recorded as “generally does not cause significant side effects”.
For `CCOC(=O)CNC(=O)[C@@H]1CCCN1C(=O)Cc1ccccc1` [noopept, N-Phenylacetyl-L-prolylglycine ethyl ester] (PhAc-Pro-Gly-OEt), in series [1], the tolerance or addiction result was “neither noopept nor CBD has been shown to cause the user to become tolerant or addicted”. Moreover, where the note is “healthy human subjects, compared with piracetam, Neznamov and Teleshova (2009)”, the side effects entry is given as “fewer side effects”. Also, the “effective dose, times smaller in mass than the effective dose of piracetam” value in series [2] is on record as “over 50 times”.
